Laboratory results published in patent US20230109839A1, “THERAPEUTIC AGENT FOR TAUOPATHIES” (SUMITOMO PHARMA CO., LTD., priority 2020, published 2023).

Each molecule was assayed against T1, human Nav1.1 (Homo sapiens, UniProt P35498) (assay: Amplification of Nav1.1-derived voltage-gated sodium current (Nav1.1 current), automated patch clamp (Test 1)). Settings: Concentration for evaluation 1 μM; HEK293 cell line stably expressing human Nav1.1.
T1 construct: host or cells: HEK293
Assay type: cell-based
Outline: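 Compound-induced change in ramp-evoked sodium current peak and AUC was expressed as 100×post/pre ratio minus 100. Recordings used automated patch clamp in voltage-clamp mode on a stable human Nav1.1 HEK293 line, including only cells above 500 pA. Compounds were delivered in extracellular fluid containing 1% DMSO.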

In order of falling “Nav1.1 current amplification rate (%)” value:
1. CC1CCN(c2ncc3cnn(CC(=O)Nc4ccn5ncnc5c4)c3n2)CC1(F)F (stereo not drawn) [Example 788]  174%
2. O=C(Cn1ncc2cnc(N3CCC4(CC4)C(F)(F)C3)nc21)Nc1ccn2ncnc2c1 [Example 792]  161%
3. O=C(Cn1ncc2cnc(-c3ccc(Cl)s3)nc21)Nc1ccn2ncnc2c1 [Example 774]  50%
4. Cc1ccc(-c2ncc3cnn(CC(=O)Nc4ccn5ncnc5c4)c3n2)cc1 [Example 787]  50%
5. CC1=CCN(c2ncc3cnn(CC(=O)Nc4ccn5ncnc5c4)c3n2)CC1 [Example 784]  45%
6. O=C(Cn1ncc2cnc(-c3ccc(C(F)(F)F)s3)nc21)Nc1ccn2ncnc2c1 [Example 779]  44%
7. CCC1(C)CCN(c2ncc3cnn(CC(=O)Nc4ccn5ncnc5c4)c3n2)CC1 [Example 789]  36%
8. O=C(Cn1ncc2cnc(C3=CCCCC3)nc21)Nc1ccn2ncnc2c1 [Example 786]  34%
9. CN(CCC1CC1)c1ncc2cnn(CC(=O)Nc3ccn4ncnc4c3)c2n1 [Example 790]  31%
10. CN(c1ncc2cnn(CC(=O)Nc3ccn4ncnc4c3)c2n1)C1CC1 [Example 794]  27%
11. CC(C)CCOc1ncc2cnn(CC(=O)Nc3ccn4ncnc4c3)c2n1 [Example 780]  10%

Same assay, conditions: Concentration for evaluation 3 μM; HEK293 cell line stably expressing human Nav1.1

In the case of Cc1cccc(F)c1Oc1ncc2cnn(CC(=O)Nc3ccn4ncnc4c3)c2n1 [Example 783], the “Nav1.1 current amplification rate (%)” value was 11%.

Same assay, conditions: Concentration for evaluation 50 μM; HEK293 cell line stably expressing human Nav1.1

In order of falling “Nav1.1 current amplification rate (%)” value:
1. O=C(Cn1ncc2cnc(N3CC(C4CC4)C3)nc21)Nc1ccn2ncnc2c1 [Example 782]  64%
2. CC1CCC(F)(F)CN1c1ncc2cnn(CC(=O)Nc3ccn4ncnc4c3)c2n1 (stereo not drawn) [Example 793]  55%
3. Cc1ccc(F)c(Nc2ncc3cnn(CC(=O)Nc4ccn5ncnc5c4)c3n2)c1 [Example 776]  17%
4. Cc1cc(-c2ncc3cnn(CC(=O)Nc4ccn5ncnc5c4)c3n2)oc1C [Example 781]  15%
5. COc1cccc(F)c1-c1ncc2cnn(CC(=O)Nc3ccn4ncnc4c3)c2n1 [Example 791]  14%
6. N#Cc1ccc(-c2ncc3cnn(CC(=O)Nc4ccn5ncnc5c4)c3n2)s1 [Example 778]  13%
7. Cc1cccc(F)c1Nc1ncc2cnn(CC(=O)Nc3ccn4ncnc4c3)c2n1 [Example 775]  12%

Same assay, conditions: concentration for evaluation 1 μM; HEK293 stably expressing human Nav1.1

In order of falling “Nav1.1 current amplification rate (%)” value:
1. CC1CC=C(c2ncc3cnn(CC(=O)Nc4ccc5cncnc5c4)c3n2)CC1 (stereo not drawn) [Example 805]  373%
2. CC1CCN(c2ncc3cnn(CC(=O)Nc4ccc5cncnc5c4)c3n2)CC1 [Example 806]  262%
3. CN(CC1CCC1)c1ncc2cnn(CC(=O)Nc3ccn4ncnc4c3)c2n1 [Example 798]  193%
4. CN(c1ncc2cnn(CC(=O)Nc3ccn4ncnc4c3)c2n1)C1CCCC1(F)F (stereo not drawn) [Example 801]  122%
5. CN(c1ncc2cnn(CC(=O)Nc3ccn4ncnc4c3)c2n1)C1CC2(CC2)C1 [Example 802]  111%
6. CN(CC1(C)CC1)c1ncc2cnn(CC(=O)Nc3ccn4ncnc4c3)c2n1 [Example 804]  93%
7. O=C(Cn1ncc2cnc(N3CCC4(CCC4)C3)nc21)Nc1ccc2cncnc2c1 [Example 807]  86%
8. CN(c1ncc2cnn(CC(=O)Nc3ccn4ncnc4c3)c2n1)C1CCC(F)(F)C1 (stereo not drawn) [Example 796]  66%
9. CN(c1ncc2cnn(CC(=O)Nc3ccn4ncnc4c3)c2n1)C1CCC1 [Example 797]  66%
10. CN(CC1CC1)c1ncc2cnn(CC(=O)Nc3ccn4ncnc4c3)c2n1 [Example 800]  55%
11. CN(CC1CC(F)(F)C1)c1ncc2cnn(CC(=O)Nc3ccn4ncnc4c3)c2n1 [Example 799]  35%
